These results are taken from US20240398784A1, “C-LINKED ISOQUINOLINE AMIDES AS LRRK2 INHIBITORS, PHARMACEUTICAL COMPOSITIONS, AND USES THEREOF” (Merck Sharp & Dohme LLC, priority 2021, published 2024).

Structures are written as SMILES.

The target in this experiment is LRRK2 G2019S (Homo sapiens, UniProt Q5S007, G2019S). In words: LRRK2 G2019S Km ATP LanthaScreen assay. In kind it is biochemical. The settings on record: read-out: LRRK2 pIC50 (converted).
Chain of LRRK2 G2019S (Q5S007 whole entry G2019S): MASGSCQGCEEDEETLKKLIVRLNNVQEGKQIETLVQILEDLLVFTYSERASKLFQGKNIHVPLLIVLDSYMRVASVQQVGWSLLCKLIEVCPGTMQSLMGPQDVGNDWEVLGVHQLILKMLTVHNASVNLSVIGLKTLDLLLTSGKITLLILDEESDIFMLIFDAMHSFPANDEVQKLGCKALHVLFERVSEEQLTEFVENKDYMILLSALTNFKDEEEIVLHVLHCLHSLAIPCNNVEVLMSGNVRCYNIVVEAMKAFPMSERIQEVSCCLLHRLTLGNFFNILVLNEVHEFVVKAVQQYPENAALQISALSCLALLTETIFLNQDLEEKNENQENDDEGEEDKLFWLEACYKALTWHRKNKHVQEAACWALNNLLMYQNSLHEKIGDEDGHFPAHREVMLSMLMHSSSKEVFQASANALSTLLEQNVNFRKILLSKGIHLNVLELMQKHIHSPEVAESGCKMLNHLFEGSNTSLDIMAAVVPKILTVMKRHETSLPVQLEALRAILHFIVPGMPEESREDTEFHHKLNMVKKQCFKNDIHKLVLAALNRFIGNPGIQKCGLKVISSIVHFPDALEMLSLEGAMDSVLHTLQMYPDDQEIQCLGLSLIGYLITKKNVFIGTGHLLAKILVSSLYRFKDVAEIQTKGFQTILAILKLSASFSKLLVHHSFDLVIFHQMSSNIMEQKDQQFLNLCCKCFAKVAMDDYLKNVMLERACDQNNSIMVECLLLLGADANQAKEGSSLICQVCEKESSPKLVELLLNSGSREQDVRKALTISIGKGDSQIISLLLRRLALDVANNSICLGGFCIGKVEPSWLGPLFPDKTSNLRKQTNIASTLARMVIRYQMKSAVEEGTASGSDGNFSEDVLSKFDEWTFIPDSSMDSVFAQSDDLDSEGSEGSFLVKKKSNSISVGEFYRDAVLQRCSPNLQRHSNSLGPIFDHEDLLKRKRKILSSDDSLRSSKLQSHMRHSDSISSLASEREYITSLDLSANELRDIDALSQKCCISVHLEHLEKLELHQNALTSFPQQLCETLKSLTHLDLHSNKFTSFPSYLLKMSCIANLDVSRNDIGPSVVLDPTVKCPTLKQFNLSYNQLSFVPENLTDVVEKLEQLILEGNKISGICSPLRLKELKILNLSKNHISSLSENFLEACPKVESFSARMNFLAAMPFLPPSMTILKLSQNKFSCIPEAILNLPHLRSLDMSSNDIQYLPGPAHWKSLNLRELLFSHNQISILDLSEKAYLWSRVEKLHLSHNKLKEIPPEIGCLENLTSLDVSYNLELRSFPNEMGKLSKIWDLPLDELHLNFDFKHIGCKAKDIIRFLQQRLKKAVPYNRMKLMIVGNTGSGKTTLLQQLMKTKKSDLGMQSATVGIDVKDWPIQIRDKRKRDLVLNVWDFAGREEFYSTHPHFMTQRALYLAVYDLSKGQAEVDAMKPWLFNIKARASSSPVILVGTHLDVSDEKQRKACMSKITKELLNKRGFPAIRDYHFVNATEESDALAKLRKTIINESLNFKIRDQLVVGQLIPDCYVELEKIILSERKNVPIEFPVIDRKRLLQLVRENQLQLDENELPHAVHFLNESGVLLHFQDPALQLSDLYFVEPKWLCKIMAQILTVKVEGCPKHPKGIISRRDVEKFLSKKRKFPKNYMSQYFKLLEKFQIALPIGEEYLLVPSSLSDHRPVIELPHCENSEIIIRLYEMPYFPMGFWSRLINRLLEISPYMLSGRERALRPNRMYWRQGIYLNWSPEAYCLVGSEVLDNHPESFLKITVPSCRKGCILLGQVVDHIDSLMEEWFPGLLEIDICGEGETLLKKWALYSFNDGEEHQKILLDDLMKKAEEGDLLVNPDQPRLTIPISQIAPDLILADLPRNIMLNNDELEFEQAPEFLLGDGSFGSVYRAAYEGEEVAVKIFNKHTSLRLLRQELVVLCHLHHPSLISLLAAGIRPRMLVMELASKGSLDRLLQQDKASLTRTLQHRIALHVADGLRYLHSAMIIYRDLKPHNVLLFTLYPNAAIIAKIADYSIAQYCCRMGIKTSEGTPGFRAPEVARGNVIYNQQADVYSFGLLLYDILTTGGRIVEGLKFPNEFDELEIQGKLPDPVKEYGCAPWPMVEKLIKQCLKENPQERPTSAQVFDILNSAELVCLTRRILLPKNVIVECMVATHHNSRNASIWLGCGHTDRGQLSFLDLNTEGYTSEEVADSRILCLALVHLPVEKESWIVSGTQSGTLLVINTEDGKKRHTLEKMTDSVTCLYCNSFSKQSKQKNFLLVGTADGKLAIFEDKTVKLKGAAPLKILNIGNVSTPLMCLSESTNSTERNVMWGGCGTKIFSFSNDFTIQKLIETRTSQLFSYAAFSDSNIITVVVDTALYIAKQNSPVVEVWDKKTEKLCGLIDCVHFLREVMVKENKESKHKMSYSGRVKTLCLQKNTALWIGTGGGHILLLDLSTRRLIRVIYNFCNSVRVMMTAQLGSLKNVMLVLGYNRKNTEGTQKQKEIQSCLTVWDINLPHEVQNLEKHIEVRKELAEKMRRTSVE
As to `CC(C)(O)C1CC1C(=O)Nc1cc2cc(C3CCN(C4(C)COCC4F)CC3)c(Cl)cc2cn1` (single isomer, unassigned) [Ex-6.26, N-(7-chloro-6-(1-(4-fluoro-3-methyltetrahydrofuran-3-yl)piperidin-4-yl)isoquinolin-3-yl)-2-(2-hydroxypropan-2-yl)cyclopropane-1-carboxamide], the IC50 is 0.234 nM.
Consider `CC(C)(O)C1CC1C(=O)Nc1cc2cc(C3CCN(C4(C)COCC4F)CC3)c(Cl)cc2cn1` (single isomer, unassigned) [Ex-6.27, N-(7-chloro-6-(1-(4-fluoro-3-methyltetrahydrofuran-3-yl)piperidin-4-yl)isoquinolin-3-yl)-2-(2-hydroxypropan-2-yl)cyclopropane-1-carboxamide], for which the IC50 is 112 nM.
As for `CC(C)(O)C1CC1C(=O)Nc1cc2cc(C3CCN(C4(C)COCC4F)CC3)c(Cl)cc2cn1` (single isomer, unassigned) [Ex-6.28, N-(7-chloro-6-(1-(4-fluoro-3-methyltetrahydrofuran-3-yl)piperidin-4-yl)isoquinolin-3-yl)-2-(2-hydroxypropan-2-yl)cyclopropane-1-carboxamide], the figure is 0.363 nM.
As for `CC(C)(O)C1CC1C(=O)Nc1cc2cc(C3CCN(C4(C)COCC4F)CC3)c(Cl)cc2cn1` (single isomer, unassigned) [Ex-6.29, N-(7-chloro-6-(1-(4-fluoro-3-methyltetrahydrofuran-3-yl)piperidin-4-yl)isoquinolin-3-yl)-2-(2-hydroxypropan-2-yl)cyclopropane-1-carboxamide], the figure is 24.5 nM; as for `Cn1cc(C2CC2C(=O)Nc2cc3cc(C4CCN(C5(C)COCC5F)CC4)c(Cl)cc3cn2)cn1` (single isomer, unassigned) [Ex-6.30, N-(7-chloro-6-(1-(4-fluoro-3-methyltetrahydrofuran-3-yl)piperidin-4-yl)isoquinolin-3-yl)-2-(1-methyl-1H-pyrazol-4-yl)cyclopropane-1-carboxamide], 1.45 nM.
As for `Cn1cc(C2CC2C(=O)Nc2cc3cc(C4CCN(C5(C)COCC5F)CC4)c(Cl)cc3cn2)cn1` (single isomer, unassigned) [Ex-6.31, N-(7-chloro-6-(1-(4-fluoro-3-methyltetrahydrofuran-3-yl)piperidin-4-yl)isoquinolin-3-yl)-2-(1-methyl-1H-pyrazol-4-yl)cyclopropane-1-carboxamide], the figure is 0.178 nM; as for `CC1(N2CCC(c3cc4cc(NC(=O)C5CC5c5ccccn5)ncc4cc3Cl)CC2)CCOC1` (single isomer, unassigned) [Ex-6.32, N-(7-chloro-6-(1-(3-methyltetrahydrofuran-3-yl)piperidin-4-yl)isoquinolin-3-yl)-2-(pyridin-2-yl)cyclopropane-1-carboxamide], 5.62 nM.
Consider `CC1(N2CCC(c3cc4cc(NC(=O)C5CC5c5ccccn5)ncc4cc3Cl)CC2)CCOC1` (single isomer, unassigned) [Ex-6.33, N-(7-chloro-6-(1-(3-methyltetrahydrofuran-3-yl)piperidin-4-yl)isoquinolin-3-yl)-2-(pyridin-2-yl)cyclopropane-1-carboxamide], for which the IC50 was 87.1 nM.
For `CC1(N2CCC(c3cc4cc(NC(=O)C5CC5c5ccccn5)ncc4cc3Cl)CC2)CCOC1` (single isomer, unassigned) [Ex-6.34, N-(7-chloro-6-(1-(3-methyltetrahydrofuran-3-yl)piperidin-4-yl)isoquinolin-3-yl)-2-(pyridin-2-yl)cyclopropane-1-carboxamide] the value was 0.977 nM.
Take `CC1(N2CCC(c3cc4cc(NC(=O)C5CC5c5ccccn5)ncc4cc3Cl)CC2)CCOC1` (single isomer, unassigned) [Ex-6.35, N-(7-chloro-6-(1-(3-methyltetrahydrofuran-3-yl)piperidin-4-yl)isoquinolin-3-yl)-2-(pyridin-2-yl)cyclopropane-1-carboxamide]: the IC50 is 6.61 nM.
For `CC1(C)CC(C(=O)Nc2cc3cc(C4CCN(C5(C)COCC5F)CC4)c(Cl)cc3cn2)CCO1` (single isomer, unassigned) [Ex-6.36, N-(7-chloro-6-(1-(4-fluoro-3-methyltetrahydrofuran-3-yl)piperidin-4-yl)isoquinolin-3-yl)-2,2-dimethyltetrahydro-2H-pyran-4-carboxamide] the value was 0.0813 nM; for `CC1(C)CC(C(=O)Nc2cc3cc(C4CCN(C5(C)COCC5F)CC4)c(Cl)cc3cn2)CCO1` (single isomer, unassigned) [Ex-6.37, N-(7-chloro-6-(1-(4-fluoro-3-methyltetrahydrofuran-3-yl)piperidin-4-yl)isoquinolin-3-yl)-2,2-dimethyltetrahydro-2H-pyran-4-carboxamide], 0.0813 nM; for `CC1(C)CC(C(=O)Nc2cc3cc(C4CCN(C5(C)COCC5F)CC4)c(Cl)cc3cn2)CCO1` (single isomer, unassigned) [Ex-6.38, N-(7-chloro-6-(1-(4-fluoro-3-methyltetrahydrofuran-3-yl)piperidin-4-yl)isoquinolin-3-yl)-2,2-dimethyltetrahydro-2H-pyran-4-carboxamide], 0.871 nM.
In the case of `CC1(C)CC(C(=O)Nc2cc3cc(C4CCN(C5(C)COCC5F)CC4)c(Cl)cc3cn2)CCO1` (single isomer, unassigned) [Ex-6.39, N-(7-chloro-6-(1-(4-fluoro-3-methyltetrahydrofuran-3-yl)piperidin-4-yl)isoquinolin-3-yl)-2,2-dimethyltetrahydro-2H-pyran-4-carboxamide], the IC50 is 89.1 nM.
As for `CC1(N2CCC(c3cc4cc(NC(=O)C5C6CCOCC65)ncc4cc3Cl)CC2)COCC1F` (single isomer, unassigned) [Ex-6.40, N-(7-chloro-6-(1-(4-fluoro-3-methyltetrahydrofuran-3-yl)piperidin-4-yl)isoquinolin-3-yl)-3-oxabicyclo[4.1.0]heptane-7-carboxamide], the figure is 0.0813 nM; as for `CC1(N2CCC(c3cc4cc(NC(=O)C5C6CCOCC65)ncc4cc3Cl)CC2)COCC1F` (single isomer, unassigned) [Ex-6.41, N-(7-chloro-6-(1-(4-fluoro-3-methyltetrahydrofuran-3-yl)piperidin-4-yl)isoquinolin-3-yl)-3-oxabicyclo[4.1.0]heptane-7-carboxamide], 0.0813 nM.
As to `CC1(N2CCC(c3cc4cc(NC(=O)C5C6CCOCC65)ncc4cc3Cl)CC2)COCC1F` (single isomer, unassigned) [Ex-6.42, N-(7-chloro-6-(1-(4-fluoro-3-methyltetrahydrofuran-3-yl)piperidin-4-yl)isoquinolin-3-yl)-3-oxabicyclo[4.1.0]heptane-7-carboxamide], the IC50 was 0.38 nM.
As to `CC1(N2CCC(c3cc4cc(NC(=O)C5C6CCOCC65)ncc4cc3Cl)CC2)COCC1F` (single isomer, unassigned) [Ex-6.43, N-(7-chloro-6-(1-(4-fluoro-3-methyltetrahydrofuran-3-yl)piperidin-4-yl)isoquinolin-3-yl)-3-oxabicyclo[4.1.0]heptane-7-carboxamide], the IC50 is 2.82 nM.
Take `CC1(C)CC(C(=O)Nc2cc3cc(C4CCN(C5(C)CCOC5)CC4)c(Cl)cc3cn2)CCO1` (single isomer, unassigned) [Ex-6.44, N-(7-chloro-6-(1-(3-methyltetrahydrofuran-3-yl)piperidin-4-yl)isoquinolin-3-yl)-2,2-dimethyltetrahydro-2H-pyran-4-carboxamide]: the IC50 was 5.37 nM.
For `CC1(C)CC(C(=O)Nc2cc3cc(C4CCN(C5(C)CCOC5)CC4)c(Cl)cc3cn2)CCO1` (single isomer, unassigned) [Ex-6.45, N-(7-chloro-6-(1-(3-methyltetrahydrofuran-3-yl)piperidin-4-yl)isoquinolin-3-yl)-2,2-dimethyltetrahydro-2H-pyran-4-carboxamide], the IC50 was 2.14 nM.
For the compound `CC1(C)CC(C(=O)Nc2cc3cc(C4CCN(C5(C)CCOC5)CC4)c(Cl)cc3cn2)CCO1` (single isomer, unassigned) [Ex-6.46, N-(7-chloro-6-(1-(3-methyltetrahydrofuran-3-yl)piperidin-4-yl)isoquinolin-3-yl)-2,2-dimethyltetrahydro-2H-pyran-4-carboxamide], the IC50 is 1.2 nM.
Consider `CC1(C)CC(C(=O)Nc2cc3cc(C4CCN(C5(C)CCOC5)CC4)c(Cl)cc3cn2)CCO1` (single isomer, unassigned) [Ex-6.47, N-(7-chloro-6-(1-(3-methyltetrahydrofuran-3-yl)piperidin-4-yl)isoquinolin-3-yl)-2,2-dimethyltetrahydro-2H-pyran-4-carboxamide], for which the IC50 was 0.724 nM.
As to `COC1COCC1N1CCC(c2cc3cc(NC(=O)C4CC45CCOCC5)ncc3cc2Cl)CC1` (single isomer, unassigned) [Ex-6.52, N-(7-chloro-6-(1-(4-methoxytetrahydrofuran-3-yl)piperidin-4-yl)isoquinolin-3-yl)-6-oxaspiro[2.5]octane-1-carboxamide], the IC50 was 0.2 nM.
For `COC1COCC1N1CCC(c2cc3cc(NC(=O)C4CC45CCOCC5)ncc3cc2Cl)CC1` (single isomer, unassigned) [Ex-6.53, N-(7-chloro-6-(1-(4-methoxytetrahydrofuran-3-yl)piperidin-4-yl)isoquinolin-3-yl)-6-oxaspiro[2.5]octane-1-carboxamide] the value was 3.39 nM.
For `Cn1cc(C(C)(C)C(=O)Nc2cc3cc(C4CCN(C5(C)COCC5F)CC4)c(Cl)cc3cn2)cn1` (single isomer, unassigned) [Ex-6.54, N-(7-chloro-6-(1-(4-fluoro-3-methyltetrahydrofuran-3-yl)piperidin-4-yl)isoquinolin-3-yl)-2-methyl-2-(1-methyl-1H-pyrazol-4-yl)propenamide] the value was 27.5 nM.
Take `Cn1cc(C(C)(C)C(=O)Nc2cc3cc(C4CCN(C5(C)COCC5F)CC4)c(Cl)cc3cn2)cn1` (single isomer, unassigned) [Ex-6.55, N-(7-chloro-6-(1-(4-fluoro-3-methyltetrahydrofuran-3-yl)piperidin-4-yl)isoquinolin-3-yl)-2-methyl-2-(1-methyl-1H-pyrazol-4-yl)propenamide]: the IC50 was 447 nM.
